# According to EP1690531A2, “Dosage form and method for administering drug” (ALZA CORPORATION, priority 1996, dated 1998):
# What was measured:
# [1] = Clinical study of methylphenidate delivery profiles in school children (SKAMP, CLAM, mathematics test, activity monitor); assay type: in vivo, human; conditions: 36 school children
# Experimental: (§1) The CLAM Test is a behavior rating that indicates social conformity or rebellion as developed by Conners, Lonez, and Milch and SKAMP is a rating that also measures behavior as developed by Swanson and reported in Psychopharmacological Bulletin, Vol. 21, pp. 887-890 (1985).
# (§2) The effect measurements in this study were: (1) observer ratings on SKAMP scale (during classroom time) and (2) performance on the computerized mathematics test. Each child was tested on the mathematics test before the study began, and based on this pre-test during the study, a mathematics test appropriate for each child's ability was given. The morning and evening parent CLAM assessments were used to identify unusual behaviors. The evening parent CLAM was used to determine the presence of treatment effects in the evening hours, particularly treatment effects on the time the child fell asleep, and whether the child's sleep was interrupted. All of the children also wore an activity monitor (Actigraph) which records the movements of the child throughout the day. The activity (number of movements per minute) is recorded electronically and modeled as a function of the drug effect.
# The immediate release tablet and the sustained-release dosage form were compared to a sustained-release dosage form that administered methylphenidate in an ascending profile. The sustained-release ascending profile corresponds to administering 4.2 mg at zero hour, 1.1 mg at 1.5 hours, 1.1 mg at 2 hours, 1.2 mg at 2.5 hours, 1.2 mg at 3.0 hours, 1.3 mg at 3.5 hours, 1.3 mg at 4 hours, 1.5 mg at 4.5 hours, 1.5 mg at 5 hours, 1.8 mg at 5.5 hours, 1.8 mg at 6 hours, and 2.0 mg at 6.5 hours, to produce the sustained-ascending release dotted line profile seen in Figure 2.
# The accompanying figures present the results of the above-described study. […]
# [2] = Clinical study of sustained-ascending versus three-times-a-day immediate release methylphenidate (behavior, combined attention); assay type: in vivo, human
# Experimental: as §1, §2
# The results of a clinical study that comprises administering methylphenidate according to two distinct delivery programs are reported in this example. In the study, a sustained-ascending profile corresponds to administering methylphenidate as follows: 8 mg at zero hours, 1.4 mg at 1.5 hours, 1.4 mg at 2.0 hours, 1.7 mg at 2.5 hours, 1.7 mg at 3.0 hours, 2.0 mg at 3.5 hours, 2.0 mg at 4.0 hours, 2.2 mg at 4.5 hours, 2.2 mg at 5.0 hours, 2.2 mg at 5.5 hours, 2.2 mg at 6.0 hours, 2.4 mg at 6.5 hours, 2.4 mg at 7.0 hours, 2.6 mg at 7.5 hours, and 1.9 mg at 8.0 hours. The methylphenidate was administered in overcoated capsules comprising a total of 36 mg of methylphenidate with 22% in the exterior overcoat. The ascending dose was administered with the first dose at 0730 followed by ascending doses every 30 minutes until 1530 to produce the intended ascending plasma concentration. […]
smiles,measurement,setting,value
COC(=O)C(c1ccccc1)C1CCCCN1 (stereo not drawn) [methylphenidate],therapeutic effect and tolerance,[1]; controlled-sustained ascending profile (4.2 mg at zero hour rising to 2.0 mg at 6.5 hours),the desired therapeutic effect without tolerance
same,"clinical effect (activity, mathematical scores, inappropriate behavior)","[1]; sustained-nonascending dose, 20 mg methylphenidate (8.3 mg at zero hour then 0.9 mg every 0.5 h to 7.5 hours)","a decrease in activity, higher mathematical scores and a lessening of inappropriate behavior"
same,acute tolerance,"[1]; sustained-nonascending dose, 20 mg methylphenidate",development of acute tolerance
same,"behavior, acquired tolerance","[2]; sustained ascending program, 36 mg total, 0730 to 1530, 32 children with attention deficient hyperactivity disorder, Figure 7",absence of acquired tolerance
same,"combined attention parameter, developed tolerance","[2]; sustained-ascending release, 36 mg total, 32 children, Figure 8",essentially free of developed tolerance
same,"combined attention parameter, acquired tolerance","[2]; three daily immediate release, 10 mg at 0730, 1130 and 1530, 32 children, Figure 8",with acquired tolerance
